Consider 16 molecules from patent publication US11807628B2, “Benzodiazepine derivatives and uses thereof” (priority 2018, dated 2023).

One test concerns A-498. In words: In vitro analysis of benzodiazepine dimer derivatives, MTT cell viability. In kind it is cell-based. As to conditions: MTT assay, 6 days incubation. As to the method: (§1) Example 85: In Vitro Analysis of Benzodiazepine Dimer Derivatives A-498, HCT-116, JIMT-1, MIA-PaCa-2 and HEK-293E were seeded into 24-well plates at 10×10^3 cells/1 mL medium/well. Calu-6, PC-3 and SK-OV-3 were seeded into 24-well plates at 15×10^3 cells/1 mL medium/well. NCI-N87 was seeded into 24-well plates at 25×10^3 cells/1 mL medium/well. The plates were incubated for 24 hours at 37° C. in a humidified 5% CO2-in-air atmosphere. Benzodiazepine dimer derivatives were dissolved initially in DMSO at a concentration of 10 mM. Serial dilutions were made in DMSO. The series of compound dilutions in DMSO were added to triplicate wells of 24-well plates at 5 μL per well. Three wells on each individual plate received 5 μL of DMSO without compound as controls. The final concentration of DMSO per well was 0.5%. The plates were incubated for 6 days at 37° C. in a humidified 5% CO2-in-air atmosphere. Cell viability was determined by the MTT assay and IC50 was generated using a sigmoidal dose-response nonlinear regression curve fit (GraphPad Software Inc.).

The next test relates to Calu-6. Described as above. In kind it is cell-based. As to conditions: MTT assay, 6 days incubation. As to the method:
as §1

A further test concerns HEK-293E. Described as above. Format: cell-based. As to conditions: MTT assay, 6 days incubation. As to the method:
as §1

A further test relates to HCT-116. Described as above. In kind it is cell-based. Particulars: MTT assay, 6 days incubation. On the procedure: as §1
The subject of the next test is MIA-PaCa2. The description is as above. Format: cell-based. Particulars: MTT assay, 6 days incubation. As to the method:
as §1

Test [1] concerns NCI-N87. The test is described as above. Format: cell-based. Particulars: Homo sapiens, NCI-N87, 144 h; MTT assay, 6 days incubation. On the procedure:
as §1

The next test relates to PC-3. The test is described as above. As to conditions: MTT assay, 6 days incubation. In kind it is cell-based. As to the method:
as §1

The subject of test [2] is SK-OV3. The test is described as above. Particulars: MTT assay, 6 days incubation. Format: cell-based. On the procedure: as §1
Test [3] concerns JIMT-1. Described as above. As to conditions: MTT assay, 6 days incubation. In kind it is cell-based. On the procedure: as §1
The next test relates to NCI-N87 cells. In words: In vivo efficacy, tumor xenograft studies in mice. As to conditions: Male BALB/c nu/nu mice, tumors approximately 95 mm^3 at start, single i.v. injection day 0 (T-2-AB 0.5 or 2 mg/kg, T-DM1 2 mg/kg), 80 days observation. On the procedure: In vivo efficacy of antibody-drug conjugates of the invention was measured by tumor xenograft studies in mice. Male BALB/c nu/nu were injected subcutaneously in the right flank with suspensions of 5×10^6 of NCI-N87 cells respectively in PBS. Mice were randomized into study groups when tumors reached approximately 95 mm^3. T-DM1 (2 mg/kg) and T-2-AB conjugates (0.5 mg/kg or 2 mg/kg) were given i.v. (single injection on treatment day 0). All treatment groups consisted of 6 to 10 animals per group, and tumor size was monitored twice weekly using caliper measurement. The tumor mass was calculated as volume=(width×width×length)/2.
T-7-AB was progressed in the same method except initial tumor size was 150 mm^3.

Test [4] deals with NCI-N87. In words: Cell cytotoxicity of antibody-drug conjugate. Particulars: living cells quantified 96 hours later. In kind it is cell-based. As to the method:
(§2) NCI-N87, JNMT-2, SK-BR3, and SK-V3 cancer cells were seeded in 96-well plates at a density of 2,000 to 8,000 cells per well in 100 μL of medium, and cultured for 24 hours. The four compounds obtained in Example 46 were treated by serial dilutions of 1:4 from 600 nM to 0.009 nM, and the antibody drug conjugate T-DM1 was treated by serial dilutions of 1:4 from 200 nM to 0.003 nM. Experiments were performed in a similar manner to Test Example 1 to quantify living cells 96 hours later, and results are shown in Table 2 below. Further, results of in vitro analysis of compound T-2-AB, T-3-AB, T-7-AB T-8-AB, T-9-AB, T-11-AB, T-12-AB, T-13-AB, T-14-AB, T-15-AB, T-16-AB, T-17-AB, T-Int-1-AB, T-Int-2-AB, T-Int-14-AB and mT-Int-8-AB were shown in FIG. 10, FIG. 11, FIG. 12, and Table 3.

Test [5] has as its system SK-OV3. In words: Cell cytotoxicity of antibody-drug conjugate. As to conditions: living cells quantified 96 hours later. Format: cell-based. On the procedure: as §2
Test [6] deals with JIMT-1. In words: Cell cytotoxicity of antibody-drug conjugate. Format: cell-based. As to conditions: living cells quantified 96 hours later. As to the method: as §2
For another test, the system named is SK-BR3. In words: Cell cytotoxicity of antibody-drug conjugate. As to conditions: living cells quantified 96 hours later. In kind it is cell-based. As to the method:
as §2

Where [7] appears, read: Homo sapiens, MIA PaCa-2, 144 h.

Non-standard residues stand in square brackets, D forms with d. Residues, ends and D or L forms follow the SMILES beside them. Dolaproine = CO[C@@H]([C@@H]1CCCN1)[C@@H](C)C(=O)O; Dil = CC[C@H](C)[C@H](NC)[C@@H](CC(=O)O)OC; NMeV = CN[C@H](C(=O)O)C(C)C

For the molecule `C=C1C[C@H]2C=Nc3cc(OCc4cc(O)cc(COc5cc6c(cc5OC)C(=O)N5CC(=C)C[C@H]5C=N6)c4)c(OC)cc3C(=O)N2C1` [Compound D-1, (Phenol)-PBD-Dimer], the 50% inhibitory concentration (IC50) in the test on A-498 (Homo sapiens, A498, 144 h) came out at 414 pM; in the test on Calu-6 (Homo sapiens, Calu-6, 144 h), 89 pM; with HEK-293E (HEK293E, 144 h), 216 pM; in the test on HCT-116 (Homo sapiens, HCT-116, 144 h), 109 pM; in the test with MIA-PaCa2 (setting [7]), 105 pM; in the test with NCI-N87 [1] it was 191 pM. Moreover, the half-inhibitory concentration (IC50) in the test with PC-3 (Homo sapiens, PC-3, 144 h) turned out to be 126 pM; in the test on SK-OV3 [2] (Homo sapiens, SK-OV-3, 144 h), 175 pM; in the test on JIMT-1 [3] (Homo sapiens, JIMT-1, 144 h) it was 102 pM.

Regarding `COc1cc2c(cc1OCc1cc(COc3cc4c(cc3OC)C(=O)N3Cc5ccccc5C[C@H]3C=N4)cc(CN(C)C)c1)N=C[C@@H]1Cc3ccccc3CN1C2=O` [Compound D-5, (N,N-dimethylbenzyl)-TBD-Dimer], the concentration for half-maximal inhibition (IC50) with A-498 (Homo sapiens, A498, 144 h) was found to be 2.9 pM; with Calu-6 (Homo sapiens, Calu-6, 144 h), 1.4 pM; in the test on HEK-293E (HEK293E, 144 h), 2.2 ± 1.1 pM; in the test on HCT-116 (Homo sapiens, HCT-116, 144 h), 1.4 ± 0.6 pM; with MIA-PaCa2 (setting [7]), 1.9 ± 1.6 pM; with PC-3 (Homo sapiens, PC-3, 144 h), 4.4 ± 2.1 pM. The half-maximal inhibitory concentration (IC50) with SK-OV3 [2] (Homo sapiens, SK-OV-3, 144 h) worked out at 10.9 ± 2.7 pM; in the test with JIMT-1 [3] (Homo sapiens, JIMT-1, 144 h), 1.7 ± 0.5 pM.

Consider `COc1cc2c(cc1OCCN(C)CCOc1cc3c(cc1OC)C(=O)N1Cc4ccccc4C[C@H]1C=N3)N=C[C@@H]1Cc3ccccc3CN1C2=O` [Compound D-9], for which the IC50 in the test on NCI-N87 [1] was 184 ± 36 pM.

As for `COc1cc2c(cc1OCc1cc(O)cc(COc3cc4c(cc3OC)C(=O)N3Cc5ccccc5C[C@H]3C=N4)c1)N=C[C@@H]1Cc3ccccc3CN1C2=O` [Compound D-3, (Phenol)-TBD-Dimer], the IC50 was 139 pM in the test on A-498 (Homo sapiens, A498, 144 h); 6.2 pM in the test on Calu-6 (Homo sapiens, Calu-6, 144 h); 11.4 ± 2.6 pM in the test on HEK-293E (HEK293E, 144 h); 13.7 ± 8.6 pM in the test on HCT-116 (Homo sapiens, HCT-116, 144 h); 10.6 ± 4.6 pM in the test on MIA-PaCa2 (setting [7]); 32.2 ± 21.3 pM in the test with NCI-N87 [1]. Further, the IC50 in the test with PC-3 (Homo sapiens, PC-3, 144 h) turned out to be 32.6 ± 10.3 pM; with SK-OV3 [2] (Homo sapiens, SK-OV-3, 144 h), 59.6 ± 18.2 pM; in the test on JIMT-1 [3] (Homo sapiens, JIMT-1, 144 h) it was 31 ± 15 pM.

Take `COc1cc2c(cc1OCCN(CCOc1cc3c(cc1OC)C(=O)N1Cc4ccccc4C[C@H]1C=N3)c1ccncc1)N=C[C@@H]1Cc3ccccc3CN1C2=O` [Compound D-6, (N-Pyridine)-TBD-Dimer]: the half-maximal inhibitory concentration (IC50) with NCI-N87 [1] was 4110 pM; in the test on JIMT-1 [3] (Homo sapiens, JIMT-1, 144 h), 2980 pM.

Consider `COc1cc2c(cc1OCc1cncc(COc3cc4c(cc3OC)C(=O)N3Cc5ccccc5C[C@H]3C=N4)c1)N=C[C@@H]1Cc3ccccc3CN1C2=O` [Compound D-4, (Pyridine)-TBD-Dimer], for which the IC50 in the test on NCI-N87 [1] was determined as 3.8 ± 2.4 pM; in the test on JIMT-1 [3] (Homo sapiens, JIMT-1, 144 h) it was 1.7 ± 0.6 pM.

`COc1cc2c(cc1OCc1cc(COc3cc4c(cc3OC)C(=O)N3c5ccccc5C[C@H]3C=N4)cc(CN(C)C)c1)N=C[C@@H]1Cc3ccccc3N1C2=O` [Compound D-8, (N,N-dimethylbenzyl)-IBD-Dimer] came in with a concentration for half-maximal inhibition (IC50) in the test with NCI-N87 [1] of 62 ± 2 pM.

For the molecule T-DM1, the “Tumor size in NCI-N87 xenograft” value with NCI-N87 cells was “less active than the conjugates of the invention”. The concentration for half-maximal inhibition (IC50) with NCI-N87 [4] came out at 0.234 ± 0.096 nM; in the test with SK-OV3 [5], 0.109 ± 0.004 nM; with JIMT-1 [6], 3.15 ± 1.76 nM; in the test on SK-BR3 it was 0.037 ± 0.012 nM.

As to `COc1cc2c(cc1OCc1cc(O)cc(COc3cc4c(cc3OC)C(=O)N3C=C(c5ccccc5)C[C@H]3C=N4)c1)N=C[C@@H]1CC(c3ccccc3)=CN1C2=O` [Compound D-11], in the test on NCI-N87 [1], the half-inhibitory concentration (IC50) is 173 ± 34 pM.

`COc1cc2c(cc1OCc1cc(O)cc(COc3cc4c(cc3OC)C(=O)N3c5ccccc5C[C@H]3C=N4)c1)N=C[C@@H]1Cc3ccccc3N1C2=O` [Compound D-7, (Phenol)-IBD-Dimer] registered a concentration for half-maximal inhibition (IC50) in the test with NCI-N87 [1] of 118 ± 9 pM.

`C=C1C[C@H]2C=Nc3cc(OCc4cncc(COc5cc6c(cc5OC)C(=O)N5CC(=C)C[C@H]5C=N6)c4)c(OC)cc3C(=O)N2C1` [Compound D-2, (Pyridine)-PBD-Dimer]: the half-inhibitory concentration (IC50) is 64 pM in the test on A-498 (Homo sapiens, A498, 144 h); 29 pM with Calu-6 (Homo sapiens, Calu-6, 144 h); 79 pM with HEK-293E (HEK293E, 144 h); 36 pM in the test with HCT-116 (Homo sapiens, HCT-116, 144 h); 44 pM in the test on MIA-PaCa2 (setting [7]); 104 pM in the test with NCI-N87 [1]. Further, the IC50 turned out to be 49 pM in the test on PC-3 (Homo sapiens, PC-3, 144 h); 74 pM in the test with SK-OV3 [2] (Homo sapiens, SK-OV-3, 144 h); 34 pM in the test with JIMT-1 [3] (Homo sapiens, JIMT-1, 144 h).

For the molecule `CC[C@H](C)[C@@H]([C@@H](CC(=O)N1CCC[C@H]1[C@H](OC)[C@@H](C)C(=O)N[C@@H](Cc1ccccc1)C(=O)OC)OC)N(C)C(=O)[C@@H](NC(=O)[C@@H](NC)C(C)C)C(C)C` [MMAF-OMe, reference compound] (H-[NMeV]V[Dil][Dolaproine]F-OMe), the IC50 with A-498 amounted to 233 pM; in the test with Calu-6, 162 pM; with HEK-293E it was 970 pM; with HCT-116, 392 pM; in the test on MIA-PaCa2, 852 pM; in the test with PC-3, 212 pM. In addition, the values for the IC50 in the test on SK-OV3 [2] and with JIMT-1 [3] were 244 pM and 161 pM, respectively.

With `COc1cc2c(cc1OCc1cccc(COc3cc4c(cc3OC)C(=O)N3Cc5ccccc5C[C@H]3C=N4)c1)N=C[C@@H]1Cc3ccccc3CN1C2=O` [Ref-1, reference compound], the IC50 in the test on NCI-N87 [1] amounted to 3.5 ± 2.8 pM; in the test on JIMT-1 [3] (Homo sapiens, JIMT-1, 144 h) it was 5.4 ± 1.6 pM.

`C=C1C[C@H]2C=Nc3cc(OCc4cc(COc5cc6c(cc5OC)C(=O)N5CC(=C)C[C@H]5C=N6)cc(CN(C)C)c4)c(OC)cc3C(=O)N2C1` [Compound D-10]: in the test on NCI-N87 [1], the midpoint of inhibition, the IC50, lay at 663 ± 116 pM.

In turn, `COc1cc2c(cc1OCCCCCOc1cc3c(cc1OC)C(=O)N1Cc4cc(O)ccc4C[C@H]1C=N3)C=N[C@@H]1Cc3ccccc3CN1C2=O` [Compound D-13] had an IC50 in the test on NCI-N87 [1] of 2030 ± 1220 pM.

In the test on NCI-N87 [1], `COc1cc2c(cc1OCc1cc(COc3cc4c(cc3OC)C(=O)N3Cc5cc(O)ccc5C[C@H]3C=N4)cc(CN(C)C)c1)N=C[C@@H]1Cc3ccccc3CN1C2=O` [Compound D-12] came in with a concentration for half-maximal inhibition (IC50) of 2030 pM.
